Laboratory results reported in ChEMBL document CHEMBL1201862, “PubChem BioAssay data set” (2004).
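96-well plates; 48 h exposure; 5 concentrations. Endpoints by linear interpolation between flanking doses. Not reached: highest tested concentration assigned. At the GI50, growth is halved.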 The source made the active and inactive calls. Cut-off read from the data, not from the text of the source: active = GI50 up to about 1.1 µM and inactive = higher.

How the values were obtained:
Assay in all cases: DTP human tumour cell line panel, 48 h
[1] = test system: 786-0
[2] = test system: A498
[3] = test system: ACHN
[4] = test system: BT-549
[5] = test system: CAKI-1
[6] = test system: COLO 205
[7] = test system: DU-145
[8] = test system: EKVX
[9] = test system: HCC 2998
[10] = test system: HCT-116
[11] = test system: HCT-15
[12] = test system: HL-60
[13] = test system: HOP-62
[14] = test system: HT-29
[15] = test system: Hs-578T
[16] = test system: IGROV-1
[17] = test system: K562
[18] = test system: KM12
[19] = test system: LOX IMVI
[20] = test system: MCF7
[21] = test system: MDA-MB-231
[22] = test system: MDA-MB-435
[23] = test system: MDA-N
[24] = test system: MOLT-4
[25] = test system: Malme-3M
[26] = test system: NCI-H226
[27] = test system: NCI-H23
[28] = test system: NCI-H460
[29] = test system: NCI-H522
[30] = test system: NCI/ADR-RES
[31] = test system: OVCAR-3
[32] = test system: OVCAR-4
[33] = test system: OVCAR-5
[34] = test system: OVCAR-8
[35] = test system: PC-3
[36] = test system: RPMI-8226
[37] = test system: SF-268
[38] = test system: SF-295
[39] = test system: SK-MEL-28
[40] = test system: SK-MEL-5
[41] = test system: SN12C
[42] = test system: SNB-19
[43] = test system: SNB-75
[44] = test system: SR
[45] = test system: SW-620
[46] = test system: T47D
[47] = test system: TK-10
[48] = test system: U-251
[49] = test system: UACC-257
[50] = test system: UACC-62
[51] = test system: UO-31
[52] = test system: A549
[53] = test system: CCRF-CEM
[54] = test system: M14
[55] = test system: SF-539
[56] = test system: SK-MEL-2
[57] = test system: SK-OV-3
[58] = test system: HOP-92
[59] = test system: RXF 393

CC(C)=CCOC(=O)C(C)=[N+]=[N-]
GI50 [1]: > 100 µM (inactive) | GI50 [2]: > 100 µM (inactive) | GI50 [3]: > 100 µM (inactive) | GI50 [4]: > 100 µM (inactive) | GI50 [5]: > 100 µM (inactive) | GI50 [6]: > 100 µM (inactive) | GI50 [7]: > 100 µM (inactive) | GI50 [8]: > 100 µM (inactive) | GI50 [9]: > 100 µM (inactive) | GI50 [10]: > 100 µM (inactive) | GI50 [11]: > 100 µM | GI50 [12]: 42.6 µM (inactive) | GI50 [13]: > 100 µM (inactive) | GI50 [14]: > 100 µM (inactive) | GI50 [15]: > 100 µM (inactive) | GI50 [16]: > 100 µM (inactive) | GI50 [17]: > 100 µM (inactive) | GI50 [18]: > 100 µM (inactive) | GI50 [19]: > 100 µM (inactive) | GI50 [20]: > 100 µM (inactive) | GI50 [21]: > 100 µM (inactive) | GI50 [22]: > 100 µM (inactive) | GI50 [23]: > 100 µM (inactive) | GI50 [24]: 59 µM (inactive) | GI50 [25]: > 100 µM (inactive) | GI50 [26]: > 100 µM (inactive) | GI50 [27]: > 100 µM (inactive) | GI50 [28]: > 100 µM (inactive) | GI50 [29]: > 100 µM (inactive) | GI50 [30]: > 100 µM (inactive) | GI50 [31]: > 100 µM (inactive) | GI50 [32]: > 100 µM (inactive) | GI50 [33]: > 100 µM (inactive) | GI50 [34]: > 100 µM (inactive) | GI50 [35]: > 100 µM (inactive) | GI50 [36]: > 100 µM (inactive) | GI50 [37]: > 100 µM (inactive) | GI50 [38]: > 100 µM (inactive) | GI50 [39]: > 100 µM (inactive) | GI50 [40]: > 100 µM (inactive) | GI50 [41]: > 100 µM (inactive) | GI50 [42]: > 100 µM (inactive) | GI50 [43]: > 100 µM (inactive) | GI50 [44]: > 100 µM (inactive) | GI50 [45]: > 100 µM (inactive) | GI50 [46]: > 100 µM (inactive) | GI50 [47]: > 100 µM (inactive) | GI50 [48]: > 100 µM (inactive) | GI50 [49]: > 100 µM (inactive) | GI50 [50]: > 100 µM (inactive) | GI50 [51]: > 100 µM (inactive)

Nn1c(Cc2ccccc2)n[nH]c1=O
GI50 [1]: > 100 µM (inactive) | GI50 [2]: > 100 µM (inactive) | GI50 [52]: > 100 µM (inactive) | GI50 [3]: > 100 µM (inactive) | GI50 [4]: > 100 µM (inactive) | GI50 [5]: > 100 µM (inactive) | GI50 [53]: > 100 µM (inactive) | GI50 [6]: > 100 µM (inactive) | GI50 [7]: > 100 µM (inactive) | GI50 [8]: > 100 µM (inactive) | GI50 [9]: > 100 µM (inactive) | GI50 [10]: > 100 µM (inactive) | GI50 [11]: > 100 µM | GI50 [12]: > 100 µM (inactive) | GI50 [13]: > 100 µM (inactive) | GI50 [14]: > 100 µM (inactive) | GI50 [15]: > 100 µM (inactive) | GI50 [16]: > 100 µM (inactive) | GI50 [17]: > 100 µM (inactive) | GI50 [18]: > 100 µM (inactive) | GI50 [19]: > 100 µM (inactive) | GI50 [54]: > 100 µM (inactive) | GI50 [20]: > 100 µM (inactive) | GI50 [21]: > 100 µM (inactive) | GI50 [22]: > 100 µM (inactive) | GI50 [23]: > 100 µM (inactive) | GI50 [24]: > 100 µM (inactive) | GI50 [25]: 37.2 µM (inactive) | GI50 [26]: > 100 µM (inactive) | GI50 [27]: > 100 µM (inactive) | GI50 [28]: > 10 µM (inactive) | GI50 [29]: > 100 µM (inactive) | GI50 [30]: > 100 µM (inactive) | GI50 [31]: > 100 µM (inactive) | GI50 [32]: > 100 µM (inactive) | GI50 [33]: > 100 µM (inactive) | GI50 [34]: > 100 µM (inactive) | GI50 [35]: > 100 µM (inactive) | GI50 [36]: > 100 µM (inactive) | GI50 [37]: > 100 µM (inactive) | GI50 [38]: > 100 µM (inactive) | GI50 [55]: > 100 µM (inactive) | GI50 [39]: > 100 µM (inactive) | GI50 [56]: > 100 µM (inactive) | GI50 [40]: > 100 µM (inactive) | GI50 [57]: > 100 µM (inactive) | GI50 [41]: > 100 µM (inactive) | GI50 [42]: > 100 µM (inactive) | GI50 [43]: > 100 µM (inactive) | GI50 [44]: > 100 µM (inactive) | GI50 [45]: > 100 µM (inactive) | GI50 [46]: > 100 µM (inactive) | GI50 [47]: > 100 µM (inactive) | GI50 [48]: > 100 µM (inactive) | GI50 [49]: > 100 µM (inactive) | GI50 [50]: > 100 µM (inactive) | GI50 [51]: > 100 µM (inactive)

NCC(=O)NC(CO)C(=O)O (stereo unspecified)
GI50 [1]: > 100 µM (inactive) | GI50 [2]: > 100 µM (inactive) | GI50 [52]: > 100 µM (inactive) | GI50 [3]: > 100 µM (inactive) | GI50 [4]: > 100 µM (inactive) | GI50 [5]: > 100 µM (inactive) | GI50 [53]: > 100 µM (inactive) | GI50 [6]: > 100 µM (inactive) | GI50 [7]: > 100 µM (inactive) | GI50 [8]: > 100 µM (inactive) | GI50 [9]: > 100 µM (inactive) | GI50 [10]: > 100 µM (inactive) | GI50 [11]: > 100 µM | GI50 [12]: > 100 µM (inactive) | GI50 [13]: > 100 µM (inactive) | GI50 [58]: > 100 µM (inactive) | GI50 [14]: > 100 µM (inactive) | GI50 [15]: > 100 µM (inactive) | GI50 [16]: > 100 µM (inactive) | GI50 [17]: > 100 µM (inactive) | GI50 [18]: > 100 µM (inactive) | GI50 [19]: > 100 µM (inactive) | GI50 [54]: > 100 µM (inactive) | GI50 [20]: > 100 µM (inactive) | GI50 [21]: > 100 µM (inactive) | GI50 [22]: > 100 µM (inactive) | GI50 [23]: > 100 µM (inactive) | GI50 [24]: > 27.5 µM (inactive) | GI50 [25]: > 100 µM (inactive) | GI50 [26]: > 100 µM (inactive) | GI50 [27]: > 100 µM (inactive) | GI50 [28]: > 100 µM (inactive) | GI50 [29]: > 100 µM (inactive) | GI50 [30]: > 100 µM (inactive) | GI50 [31]: > 100 µM (inactive) | GI50 [32]: > 100 µM (inactive) | GI50 [33]: > 100 µM (inactive) | GI50 [34]: > 100 µM (inactive) | GI50 [35]: > 100 µM (inactive) | GI50 [36]: > 100 µM (inactive) | GI50 [59]: > 100 µM (inactive) | GI50 [37]: > 100 µM (inactive) | GI50 [38]: > 100 µM (inactive) | GI50 [55]: > 100 µM (inactive) | GI50 [39]: > 100 µM (inactive) | GI50 [56]: > 100 µM (inactive) | GI50 [40]: > 100 µM (inactive) | GI50 [57]: > 100 µM (inactive) | GI50 [41]: > 100 µM (inactive) | GI50 [42]: > 100 µM (inactive) | GI50 [43]: > 100 µM (inactive) | GI50 [45]: > 100 µM (inactive) | GI50 [46]: > 100 µM (inactive) | GI50 [47]: > 100 µM (inactive) | GI50 [48]: > 100 µM (inactive) | GI50 [49]: > 100 µM (inactive) | GI50 [50]: > 100 µM (inactive) | GI50 [51]: > 100 µM (inactive)
